Patent publication US7211587B2, “Quinoline derivatives and quinazoline derivatives having azolyl group” (Kirin Beer Kabushiki Kaisha, priority 2001, dated 2007)

biological target: T1, human KDR (Homo sapiens, UniProt P35968); assay: Inhibitory activity against KDR phosphorylation by ELISA (VEGF-stimulated NIH 3T3 cells expressing human KDR); type: cell-based; conditions: VEGF 100 ng/ml, compound 1 hr, read-out: IC50 (inhibition of KDR phosphorylation)
T1 construct: expressed in transfected cells; host or cells: NIH 3T3 cells (mouse fibroblasts) stably expressing human KDR
T1 sequence (P35968 20-1356): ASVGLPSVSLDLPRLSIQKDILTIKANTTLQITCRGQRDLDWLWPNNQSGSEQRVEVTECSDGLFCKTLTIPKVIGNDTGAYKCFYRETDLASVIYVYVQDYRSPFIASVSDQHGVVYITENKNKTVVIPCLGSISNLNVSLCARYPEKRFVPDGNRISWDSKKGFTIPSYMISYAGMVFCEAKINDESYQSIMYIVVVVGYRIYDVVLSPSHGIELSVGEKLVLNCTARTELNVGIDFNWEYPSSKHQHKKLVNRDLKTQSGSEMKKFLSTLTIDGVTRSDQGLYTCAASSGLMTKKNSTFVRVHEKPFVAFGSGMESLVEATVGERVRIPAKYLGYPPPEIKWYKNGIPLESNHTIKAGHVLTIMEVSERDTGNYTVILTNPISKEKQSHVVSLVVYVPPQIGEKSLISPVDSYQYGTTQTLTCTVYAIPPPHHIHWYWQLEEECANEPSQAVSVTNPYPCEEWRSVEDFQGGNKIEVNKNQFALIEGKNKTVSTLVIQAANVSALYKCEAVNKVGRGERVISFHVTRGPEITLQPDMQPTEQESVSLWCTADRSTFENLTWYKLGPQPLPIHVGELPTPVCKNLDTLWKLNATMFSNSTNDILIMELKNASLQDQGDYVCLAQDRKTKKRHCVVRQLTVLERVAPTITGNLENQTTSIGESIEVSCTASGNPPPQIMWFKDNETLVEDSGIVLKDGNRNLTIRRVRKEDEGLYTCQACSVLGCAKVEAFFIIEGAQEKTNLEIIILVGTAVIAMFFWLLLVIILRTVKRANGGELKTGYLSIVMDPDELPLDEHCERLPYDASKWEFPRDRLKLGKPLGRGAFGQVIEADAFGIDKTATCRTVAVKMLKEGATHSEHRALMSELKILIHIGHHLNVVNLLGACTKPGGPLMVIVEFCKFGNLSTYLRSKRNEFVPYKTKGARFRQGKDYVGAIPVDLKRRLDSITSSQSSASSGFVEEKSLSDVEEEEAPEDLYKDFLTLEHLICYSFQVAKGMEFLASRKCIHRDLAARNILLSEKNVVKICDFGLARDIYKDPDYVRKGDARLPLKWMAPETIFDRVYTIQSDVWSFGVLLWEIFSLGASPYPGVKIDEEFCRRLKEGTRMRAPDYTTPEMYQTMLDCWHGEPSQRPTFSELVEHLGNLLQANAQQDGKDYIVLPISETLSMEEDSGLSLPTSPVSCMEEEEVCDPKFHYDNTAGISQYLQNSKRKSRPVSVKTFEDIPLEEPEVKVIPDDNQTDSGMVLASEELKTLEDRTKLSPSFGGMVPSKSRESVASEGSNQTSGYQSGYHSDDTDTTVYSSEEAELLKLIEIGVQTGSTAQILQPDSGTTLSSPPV
Description: The harvested cells were inoculated into wells of a collagen-type one-coat 96-well flat-bottom plate, each containing the same medium, in an amount of 1.5×10^4 per well, followed by cultivation at 37° C. overnight. The medium was then replaced by a DMEM medium containing 0.1% fetal calf serum. A solution of a test compound in dimethyl sulfoxide was added to each well, and the cultivation was continued at 37° C. for additional one hr. A human recombinant vascular endothelial growth factor (hereinafter abbreviated to “VEGF”) was added to a final concentration of 100 ng/ml, and the stimulation of cells was carried out at 37° C. for 2 min. The medium was removed, the cells were washed with phosphate buffered saline (pH 7.4), and 50 μl of a solubilization buffer (20 mM HEPES (pH 7.4), 150 mM NaCl, 0.2% Triton X-100, 10% glycerol, 5 mM sodium orthovanadylate, 5 mM disodium ethylenediaminetetraacetate, and 2 mM Na4P2O7) was then added thereto. The mixture was shaken at 4° C. for 2 hr to prepare a cell extract.
Separately, phosphate buffered saline (50 μl, pH 7.4) containing 5 μg/ml of an anti-phospho-tyrosine antibody (PY20; purchased from Transduction Laboratories) was added to a microplate for ELISA (Maxisorp; purchased from NUNC), followed by standing at 4° C. overnight to form a solid phase on the wells. After washing of the plate, 300 μl of a blocking solution was added, followed by standing at room temperature for 2 hr to perform blocking. After washing, the whole quantity of the cell extract was transferred to the wells, and the plate was then allowed to stand at 4° C. overnight. After washing, an anti-KDR antibody (purchased from Santa Cruz) was allowed to react at room temperature for one hr, and, after washing, a peroxidase-labeled anti-rabbit Ig antibody (purchased from Amersham) was allowed to react at room temperature for one hr. After washing, a chromophoric substrate for peroxidase (purchased from Sumitomo Bakelite Co., Ltd.) was added thereto to initiate a reaction. After a suitable level of color development, a reaction termination solution was added to stop the reaction, and the absorbance at 450 nm was measured with a microplate reader. The KDR phosphorylation activity for each well was determined by presuming the absorbance with the addition of VEGF and without the addition of the medicament to be 100% KDR phosphorylation activity and the absorbance without the addition of the medicament and VEGF to be 0% KDR phosphorylation activity.

SMILES	IC50
COc1cc2nccc(Oc3ccc(NC(=O)Nc4nnc(C(F)(F)F)s4)cc3Cl)c2cc1OC [Ex. 73, N-{3-Chloro-4-[(6,7-dimethoxy-4-quinolyl)oxy]phenyl}-N′-[5-(trifluoromethyl)-1,3,4-thiadiazol-2-yl]urea]	21 nM
COc1cc2ncnc(Oc3ccc(NC(=O)Nc4cc(C)no4)cc3Cl)c2cc1OC [Ex. 15, N-{3-Chloro-4-[(6,7-dimethoxy-4-quinazolinyl)oxy]phenyl}-N′-(3-methyl-5-isoxazolyl)urea]	13.4 nM
COc1cc2nccc(Oc3ccc(NC(=O)Nc4nnc(C5CC5)s4)cc3Cl)c2cc1OC [Ex. 68, N-{3-Chloro-4-[(6,7-dimethoxy-4-quinolyl)oxy]phenyl}-N′-(5-cyclopropyl-1,3,4-thiadiazol-2-yl)urea]	18 nM
COc1cc2ncnc(Oc3ccc(NC(=O)Nc4cc(C)ns4)cc3Cl)c2cc1OC [Ex. 18, N-{3-Chloro-4-[(6,7-dimethoxy-4-quinazolinyl)oxy]phenyl}-N′-(3-methyl-5-isothiazolyl)-urea]	69.7 nM
CCc1nnc(NC(=O)Nc2ccc(Oc3ccnc4cc(OC)c(OC)cc34)cc2)s1 [Ex. 59, N-{4-[(6,7-Dimethoxy-4-quinolyl)oxy]phenyl}-N′-(5-ethyl-1,3,4-thiadiazol-2-yl)urea]	1.3 nM
COc1cc2ncnc(Oc3ccc(NC(=O)Nc4nccs4)cc3Cl)c2cc1OC [Ex. 46, N-{3-Chloro-4-[(6,7-dimethoxy-4-quinazolinyl)oxy]phenyl}-N′-(1,3-thiazol-2-yl)urea]	7.4 nM
COc1cc2nccc(Oc3ccc(NC(=O)Nc4ncc(Cl)s4)c(F)c3)c2cc1OC [Ex. 37, N-(5-Chloro-1,3-thiazol-2-yl)-N′-{4-[(6,7-dimethoxy-4-quinolyl)oxy]-2-fluorophenyl}urea]	1.9 nM
COc1cc2ncnc(Oc3ccc(NC(=O)Nc4ncc(C)s4)cc3)c2cc1OC [Ex. 43, N-{4-[(6,7-Dimethoxy-4-quinazolinyl)oxy]-phenyl}-N′-(5-methyl-1,3-thiazol-2-yl)urea]	< 1 nM
COc1cc2nccc(Oc3ccc(NC(=O)Nc4nc(C)c(C)s4)c(C(F)(F)F)c3)c2cc1OC [Ex. 26, N-[4-[(6,7-Dimethoxy-4-quinolyl)oxy]-2-(trifluoromethyl)phenyl]-N′-(4,5-dimethyl-1,3-thiazol-2-yl)urea]	5 nM
CCc1nnc(NC(=O)Nc2ccc(Oc3ccnc4cc(OC)c(OC)cc34)cc2Cl)s1 [Ex. 65, N-{2-Chloro-4-[(6,7-dimethoxy-4-quinolyl)oxy]phenyl}-N′-(5-ethyl-1,3,4-thiadiazol-2-yl)urea]	< 1 nM
COc1cc2nccc(Oc3ccc(NC(=O)Nc4nnc(C(F)(F)F)s4)c(Cl)c3)c2cc1OC [Ex. 72, N-{2-Chloro-4-[(6,7-dimethoxy-4-quinolyl)oxy]phenyl}-N′-[5-(trifluoromethyl)-1,3,4-thiadiazol-2-yl]urea]	2.9 nM
COc1cc2ncnc(Oc3ccc(NC(=O)Nc4cc(C)on4)cc3)c2cc1OC [Ex. 10, N-{4-[(6,7-Dimethoxy-4-quinazolinyl)oxy]-phenyl}-N′-(5-methyl-3-isoxazolyl)urea]	3.6 nM
COc1cc2ncnc(Oc3ccc(NC(=O)Nc4ncc(C)s4)cc3Cl)c2cc1OC [Ex. 47, N-{3-Chloro-4-[(6,7-dimethoxy-4-quinazolinyl)oxy]phenyl}-N′-(5-methyl-1,3-thiazol-2-yl)urea]	2.8 nM
COc1cc2ncnc(Oc3ccc(NC(=O)Nc4nccs4)cc3)c2cc1OC [Ex. 42, N-{4-[(6,7-Dimethoxy-4-quinazolinyl)oxy]-phenyl}-N′-(1,3-thiazol-2-yl)urea]	4.7 nM
CCc1nnc(NC(=O)Nc2ccc(Oc3ccnc4cc(OC)c(OC)cc34)cc2C)s1 [Ex. 60, N-{4-[(6,7-Dimethoxy-4-quinolyl)oxy]-2-methylphenyl}-N′-(5-ethyl-1,3,4-thiadiazol-2-yl)urea]	< 1 nM
COc1cc2ncnc(Oc3ccc(NC(=O)Nc4cc(C)ns4)cc3)c2cc1OC [Ex. 16, N-{4-[(6,7-Dimethoxy-4-quinazolinyl)oxy]-phenyl}-N′-(3-methyl-5-isothiazolyl)urea]	54.9 nM
CCSc1nnc(NC(=O)Nc2ccc(Oc3ccnc4cc(OC)c(OC)cc34)cc2F)s1 [Ex. 70, N-{4-[(6,7-Dimethoxy-4-quinolyl)oxy]-2-fluorophenyl}-N′-[5-(ethylsulfanyl)-1,3,4-thiadiazol-2-yl]urea]	2.2 nM

SMILES	IC50
COc1cc2nccc(Oc3ccc(NC(=O)Nc4nnc(C(C)(C)C)s4)c(F)c3)c2cc1OC [Ex. 74, N-[5-(Tert-butyl)-1,3,4-thiadiazol-2-yl]-N′-{4-[(6,7-dimethoxy-4-quinolyl)oxy]-2-fluorophenyl}urea]	3 nM
COc1cc2ncnc(Oc3ccc(NC(=O)Nc4cc(C)on4)cc3Cl)c2cc1OC [Ex. 14, N-{3-Chloro-4-[(6,7-dimethoxy-4-quinazolinyl)oxy]phenyl}-N′-(5-methyl-3-isoxazolyl)urea]	4.4 nM
COc1cc2nccc(Oc3ccc(NC(=O)Nc4nnc(C5CC5)s4)c(Cl)c3)c2cc1OC [Ex. 67, N-{2-Chloro-4-[(6,7-dimethoxy-4-quinolyl)oxy]phenyl}-N′-(5-cyclopropyl-1,3,4-thiadiazol-2-yl)urea]	2.4 nM
COc1cc2nccc(Oc3ccc(NC(=O)Nc4ccn[nH]4)c(F)c3)c2cc1OC [Ex. 20, N-{4-[(6,7-Dimethoxy-4-quinolyl)oxy]-2-fluorophenyl}-N′-(1H-5-pyrazolyl)urea]	4.2 nM
COc1cc2ncnc(Oc3ccc(NC(=O)Nc4nc(C)cs4)cc3)c2cc1OC [Ex. 44, N-{4-[(6,7-Dimethoxy-4-quinazolinyl)oxy]-phenyl}-N′-(4-methyl-1,3-thiazol-2-yl)urea]	1.1 nM
COc1cc2ncnc(Oc3ccc(NC(=O)Nc4nc(C)c(C)s4)cc3Cl)c2cc1OC [Ex. 49, N-{3-Chloro-4-[(6,7-dimethoxy-4-quinazolinyl)oxy]phenyl}-N′-(4,5-dimethyl-1,3-thiazol-2-yl)urea]	3.1 nM
COc1cc2ncnc(Oc3ccc(NC(=O)Nc4nc(C)c(C)s4)cc3)c2cc1OC [Ex. 45, N-{4-[(6,7-Dimethoxy-4-quinazolinyl)oxy]-phenyl}-N′-(4,5-dimethyl-1,3-thiazol-2-yl)urea]	< 1 nM
COc1cc2nccc(Oc3ccc(NC(=O)Nc4nnc(C(C)(C)C)s4)c(C)c3C)c2cc1OC [Ex. 75, N-[5-(Tert-butyl)-1,3,4-thiadiazol-2-yl]-N′-{4-[(6,7-dimethoxy-4-quinolyl)oxy]-2,3-dimethylphenyl}-urea]	4.5 nM
CCc1nnc(NC(=O)Nc2ccc(Oc3ccnc4cc(OC)c(OC)cc34)cc2F)s1 [Ex. 63, N-{4-[(6,7-Dimethoxy-4-quinolyl)oxy]-2-fluorophenyl}-N′-(5-ethyl-1,3,4-thiadiazol-2-yl)urea]	< 1 nM
COc1cc2ncnc(Oc3ccc(NC(=O)Nc4cc(C)on4)c(Cl)c3)c2cc1OC [Ex. 12, N-{2-Chloro-4-[(6,7-dimethoxy-4-quinazolinyl)oxy]phenyl}-N′-(5-methyl-3-isoxazolyl)urea]	< 1 nM
COc1cc2nccc(Oc3ccc(NC(=O)Nc4nc(C)c(C(C)=O)s4)c(F)c3)c2cc1OC [Ex. 36, N-(5-Acetyl-4-methyl-1,3-thiazol-2-yl)-N′-{4-[(6,7-dimethoxy-4-quinolyl)oxy]-2-fluorophenyl}urea]	1.2 nM
COc1cc2nccc(Oc3ccc(NC(=O)Nc4ncc(Br)s4)c(F)c3)c2cc1OC [Ex. 35, N-(5-Bromo-1,3-thiazol-2-yl)-N′-{4-[(6,7-dimethoxy-4-quinolyl)oxy]-2-fluorophenyl}urea]	1.9 nM
COc1cc2nccc(Oc3ccc(NC(=O)Nc4ncc(Br)s4)c(Cl)c3)c2cc1OC [Ex. 32, N-(5-Bromo-1,3-thiazol-2-yl)-N′-{2-chloro-4-[(6,7-dimethoxy-4-quinolyl)oxy]phenyl}urea]	3.7 nM
COc1cc2nccc(Oc3ccc(NC(=O)Nc4ncc(Cl)s4)c(Cl)c3)c2cc1OC [Ex. 34, N-{2-Chloro-4-[(6,7-dimethoxy-4-quinolyl)oxy]phenyl}-N′-(5-chloro-1,3-thiazol-2-yl)urea]	2.8 nM
COc1cc2nccc(Oc3ccc(NC(=O)Nc4nc(C(C)(C)C)cs4)c(F)c3)c2cc1OC [Ex. 30, N-[4-(Tert-butyl)-1,3-thiazol-2-yl]-N′-{4-[(6,7-dimethoxy-4-quinolyl)oxy]-2-fluorophenyl}urea]	28.6 nM
COc1cc2nccc(Oc3ccc(NC(=O)Nc4ccon4)cc3Cl)c2cc1OC [Ex. 1, N-{3-Chloro-4-[(6,7-dimethoxy-4-quinolyl)oxy]phenyl}-N′-(3-isoxazolyl)urea]	2.3 nM
